Non-standard residues stand in square brackets, D forms with d. Residues, ends and D or L forms follow the SMILES beside them. pGlu = O=C1CC[C@@H](C(=O)O)N1
Tests used:
[1] = test system: luciferase-transfected MIAPaCa-2 xenograft tumors; assay: Human pancreatic cancer xenograft in female athymic nude mice; format: in vivo
Description: MIAPaCa-2, a cell line expressing the LHRH receptor, was then used for in vivo experiments. We stably transfected MIAPaCa-2 cells with a gene encoding luciferase. We used the transfected cells to produce a pancreatic cancer xenograft mouse model.
Forty-eight female nude mice (athymic Balb/c, 4-5 weeks old) were obtained from a commercial vendor (Charles River Laboratories, Wilmington, Mass.), and caged individually in a room maintained at constant temperature and humidity under a 12-h light and darkness cycle, and fed a regular, autoclaved chow diet with water ad libitum. […]
After the tumors were established (100-250 mm^3), the 48 mice were randomized into six different treatment groups (n=8 mice per group): (1) LHRH alone, (2) LHRH-Curcumin, (3) LHRH-Phor21, (4) unconjugated LHRH and Phor21, (5) vehicle control, and (6) a control group of tumor-bearing mice that were necropsied before treatment (baseline controls). […] Tumor volumes and mice body weights were measured twice weekly, and mice were necropsied one week after the last treatment. At necropsy, tumors, ovaries, kidneys, pancreases, lungs, spleen, several bones, and liver were removed and weighed, and metastastic cell numbers were measured by luciferase assay. The tumor volumes and weights were analyzed by one-way ANOVA, and compared among groups using an unpaired Student's t-test. […]

[2] = test system: MIAPaCa-2, BxPC-3 and PANC-1 pancreatic cancer cells; assay: Modified MTT cytotoxicity assay; format: cell-based, human
Procedure: Pancreatic cell lines MIAPaCa-2, BxPC-3, and PANC-1 were obtained from the American Type Culture Collection. All cell lines were cultured in DMEM supplemented with 10% FBS, 100 units/mL penicillin, and 100 μg/mL streptomycin. The presence and location of LHRH-receptors in these pancreatic cancer cell lines was determined by immunochemical methods.
The cytotoxicity of the peptides was determined with a modified MTT (3-(4, 5-dimethylthiazol-2-yl)-2, 5-diphenyltetrazolium bromide) assay. Briefly, MIAPaCa-2, BxPC-3 and PANG-1 cells (2000/well) were separately incubated in 96-well plates in triplicate in a cell growth medium with different concentrations of LHRH, LHRH-Curcumin, Curcumin, and LHRH-Phor21. Three wells served as controls, each receiving an equivalent volume of medium. After 24 hours, an MTT solution (5 mg/ml in PBS) was added to each well and incubated for 2 hours at 37° C., followed by extraction with buffer (20% SDS and 50% dimethylformamide). The cells were incubated overnight at 37° C. Optical absorbance of the cell suspension was then measured at 590 nm using an MRX Revelation 96-well multiscanner (Dynex Technologies, Chantilly, Va.). From these measurements the IC50 doses of the peptides were calculated. […] Values given are mean±SD of triplicate cultures.

caspase-3/7 = assay: Apo-ONE homogenous caspase-3/7 assay in MIAPaCa-2 cells; format: cell-based, human; conditions: 5 μM, 24 hours, p<0.05, FIG. 6
Procedure: We also directly measured the effect of LHRH-curcumin on caspase 3 enzyme activity with the Apo-ONE homogenous caspase-3/7 assay kit (Promega, Madison, Wis.). This assay uses a profluorescent substrate with an optimized, bifunctional cell lysis/activity buffer. MIAPaCa-2 cells were treated in triplicate (10,000 cells per well) with the free peptide LHRH, or with the LHRH-Curcumin conjugate, in each case at a 5 μM concentration, and incubated for 24 hours. Following the 24 hour incubation, the Apo-ONE homogenous caspase-3/7 assay was performed according to the manufacturer's protocol. The buffer and 100 μL Apo-ONE caspase-3/7 assay reagent were mixed and added to the samples. Cells were then incubated for an additional hour prior to fluorescence measurements. Upon sequential cleavage and removal of the Asp-Glu-Val-Asp peptide (SEQ ID NO. 10) by caspase-3/7 activity, the rhodamine 110 leaving group became intensely fluorescent with excitation at 499 nm and an emission maximum at 512 nm. The excitation/emission was recorded on a FlexStation (Molecular Devices, Sunnyvale, Calif.) with softMax Pro version 4.8 software. The experiment was conducted in duplicate. Statistical significance was determined by a two-tailed Students t-test, using GraphPad Prism software version 5.0.

[3] = test system: advanced pancreatic cancer; conditions: cited from earlier work

CC(C)C[C@H](NC(=O)CNC(=O)[C@H](Cc1ccc(O)cc1)NC(=O)[C@H](CO)NC(=O)[C@H](Cc1c[nH]c2ccccc12)NC(=O)[C@H](Cc1c[nH]cn1)NC(=O)[C@@H]1CCC(=O)N1)C(=O)N[C@@H](CCCNC(=N)N)C(=O)N1CCC[C@H]1C(=O)NCC(=O)N[C@@H](CCCCN)C(=O)N[C@@H](Cc1ccccc1)C(=O)N[C@@H](C)C(=O)N[C@@H](CCCCN)C(=O)N[C@@H](Cc1ccccc1)C(=O)N[C@@H](C)C(=O)N[C@@H](CCCCN)C(=O)N[C@@H](CCCCN)C(=O)N[C@@H](Cc1ccccc1)C(=O)N[C@@H](C)C(=O)N[C@@H](CCCCN)C(=O)N[C@@H](Cc1ccccc1)C(=O)N[C@@H](C)C(=O)N[C@@H](CCCCN)C(=O)N[C@@H](CCCCN)C(=O)N[C@@H](Cc1ccccc1)C(=O)N[C@@H](C)C(=O)N[C@@H](CCCCN)C(=O)N[C@@H](Cc1ccccc1)C(=O)N[C@@H](C)C(=O)N[C@@H](CCCCN)C(=O)O [LHRH-Phor21] ([pGlu]HWSYGLRPGKFAKFAKKFAKFAKKFAKFAK-OH; C-terminus assumed)
mice body weights as indicators of potential toxicity ([1]; FIG. 5(D)): not significantly different from control
side effects ([1]; tail vein injections): some inflammation was seen in the mice tails at the site of injections
relative cytotoxicity [2]: greater cytotoxicity than that of LHRH-Curcumin

pGlu-His-Trp-Ser-Tyr-Gly-Leu-Arg-Pro-Gly [LHRH]
caspase-3/7 activity (caspase-3/7): significantly increased

COc1cc(/C=C/C(=O)CC(=O)/C=C/c2ccc(O)c(OC)c2)ccc1O [Curcumin, diferuloylmethane]
bioavailability ([3]; oral administration): poor bioavailability
patients with clinical biological activity ([3]; oral, advanced pancreatic cancer): 2 of 21
inhibition of proliferation of pancreatic cancer cells ([2]; 24 hours, MTT, FIGS. 2(A)-2(C)): inhibited the proliferation of pancreatic cancer cells

From patent US9937260B2, “Curcumin conjugates for treating and preventing cancers” (BOARD OF SUPERVISORS OF LOUISIANA STATE UNIVERSITY AND …, priority 2008, dated 2018)
